SMILES strings stand for the structures. Some results are limits rather than exact numbers.

Sequence of human ACSS2 protein (Q9NR19 whole entry): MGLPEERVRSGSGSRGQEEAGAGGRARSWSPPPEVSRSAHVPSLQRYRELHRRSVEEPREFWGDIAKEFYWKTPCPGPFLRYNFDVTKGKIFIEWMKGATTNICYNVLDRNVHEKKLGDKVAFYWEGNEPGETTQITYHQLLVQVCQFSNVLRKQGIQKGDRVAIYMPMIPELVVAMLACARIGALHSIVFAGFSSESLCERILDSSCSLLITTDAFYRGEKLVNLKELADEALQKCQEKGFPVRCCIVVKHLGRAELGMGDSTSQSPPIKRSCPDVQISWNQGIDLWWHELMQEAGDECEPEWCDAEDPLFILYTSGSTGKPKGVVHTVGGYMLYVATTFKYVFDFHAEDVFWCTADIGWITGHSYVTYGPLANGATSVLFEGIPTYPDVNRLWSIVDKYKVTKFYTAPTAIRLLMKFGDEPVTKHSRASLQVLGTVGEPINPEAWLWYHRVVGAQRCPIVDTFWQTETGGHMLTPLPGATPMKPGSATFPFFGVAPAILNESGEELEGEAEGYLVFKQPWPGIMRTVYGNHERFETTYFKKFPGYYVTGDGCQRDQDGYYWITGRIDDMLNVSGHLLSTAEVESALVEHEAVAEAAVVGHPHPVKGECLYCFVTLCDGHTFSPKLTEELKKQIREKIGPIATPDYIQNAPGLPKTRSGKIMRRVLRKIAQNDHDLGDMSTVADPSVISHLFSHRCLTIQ

This test addresses human ACSS2 protein (Homo sapiens (Human), UniProt Q9NR19). Kind of test: ACSS2 Cell-Free Activity Assay (Cell-Free IC50). To be noted: 10 nM human ACSS2 protein, 90 minutes at 37 C, pyrophosphatase-coupled, Biomol Green absorbance at 620 nm; read-out: ACSS2 Biochemical IC50. The text has this: ACSS2 Cell-Free Activity Assay (Cell-Free IC50)
With `CCC1(C(=O)Nc2cccc(C(C)(F)F)c2)C(=O)N(c2ccc(OC(F)F)cc2)N=C1C` (stereo not drawn) [Compound 159, N-(3-(1,1-difluoroethyl)phenyl)-1-(4-(difluoromethoxy)phenyl)-4-ethyl-3-methyl-5-oxo-4,5-dihydro-1H-pyrazole-4-carboxamide], the IC50 was 1 to 100 nM.

With `CCCc1cc(N2N=C(C)C(C(=O)Nc3cccc(C(C)(F)F)c3)C2=O)cc(-c2ccccc2)c1OC` (stereo not drawn) [Compound 161, N-(3-(1,1-difluoroethyl)phenyl)-1-(6-methoxy-5-propyl-[1,1′-biphenyl]-3-yl)-3-methyl-5-oxo-4,5-dihydro-1H-pyrazole-4-carboxamide], the IC50 is below 1 nM. Then `CNc1c(C(=O)Nc2cccc(C(C)(F)F)c2)c(C)nn1-c1ccc(OC(F)F)cc1` [Compound 162, N-(3-(1,1-difluoroethyl)phenyl)-1-(4-(difluoromethoxy)phenyl)-3-methyl-5-(methylamino)-1H-pyrazole-4-carboxamide], with 1 to 100 nM. Then `CCC(F)(F)c1cccc(NC(=O)C2(Cl)C(=O)N(c3ccc(OC(F)F)cc3)N=C2C)c1` (stereo not drawn) [Compound 163, 4-chloro-1-(4-(difluoromethoxy)phenyl)-N-(3-(1,1-difluoropropyl)phenyl)-3-methyl-5-oxo-4,5-dihydro-1H-pyrazole-4-carboxamide], with below 1 nM.

`Cc1nn(-c2ccc(OC(F)F)cc2)nc1C(=O)Nc1cccc(C(C)(F)F)c1` [Compound 164, N-(3-(1,1-difluoroethyl)phenyl)-2-(4-(difluoromethoxy)phenyl)-5-methyl-2H-1,2,3-triazole-4-carboxamide]: the IC50 is above 100 nM. On to `CC1=NN(c2ccc(OC(F)F)cc2)C(=O)C1(C)C(=O)Nc1cc(Cl)c(F)c(Cl)c1` (stereo not drawn) [Compound 165, N-(3,5-dichloro-4-fluoro-phenyl)-1-[4-(difluoromethoxy)phenyl]-3,4-dimethyl-5-oxo-pyrazole-4-carboxamide], for which the IC50 was above 100 nM. For `CC1=NN(c2ccc(OC(F)F)cc2)C(=O)C1(C)C(=O)Nc1cc(F)cc(Cl)c1` (stereo not drawn) [Compound 166, N-(3-chloro-5-fluoro-phenyl)-1-[4-(difluoromethoxy)phenyl]-3,4-dimethyl-5-oxo-pyrazole-4-carboxamide], the IC50 was above 100 nM. Consider `CC1=NN(c2ccc(OC(F)F)cc2)C(=O)C1(C)C(=O)Nc1cccc(Cl)c1` (stereo not drawn) [Compound 167, N-(3-chlorophenyl)-1-[4-(difluoromethoxy)phenyl]-3,4-dimethyl-5-oxo-pyrazole-4-carboxamide], for which the IC50 is above 100 nM. In the case of `Cc1nn(-c2ccc(OC(F)F)cc2)c(N(C)C)c1C(=O)Nc1cccc(C(C)(F)F)c1` [Compound 168, N-(3-(1,1-difluoroethyl)phenyl)-1-(4-(difluoromethoxy)phenyl)-5-(dimethylamino)-3-methyl-1H-pyrazole-4-carboxamide], the IC50 fell in the range of 1 to 100 nM. To `CC1=NN(c2ccc(OC(F)F)cc2)C(=O)[C@@]1(C)C(=O)Nc1cccc(C(C)(F)F)c1` [Compound 169, (4R)—N-(3-(1,1-difluoroethyl)phenyl)-1-(4-(difluoromethoxy)phenyl)-3,4-dimethyl-5-oxo-4,5-dihydro-1H-pyrazole-4-carboxamide] belongs above 100 nM; to `CC1=NN(c2ccc(OC(F)F)cc2)C(=O)[C@]1(C)C(=O)Nc1cccc(C(C)(F)F)c1` [Compound 170, (4S)—N-(3-(1,1-difluoroethyl)phenyl)-1-(4-(difluoromethoxy)phenyl)-3,4-dimethyl-5-oxo-4,5-dihydro-1H-pyrazole-4-carboxamide], above 100 nM. Then `Cc1nn(-c2ccc(OC(F)F)cc2)c(N)c1C(=O)Nc1cccc(C(C)(F)F)c1` [Compound 171, 5-amino-N-(3-(1,1-difluoroethyl)phenyl)-1-(4-(difluoromethoxy)phenyl)-3-methyl-1H-pyrazole-4-carboxamide], with above 100 nM; and `CC1=NN(c2ccc(OC(F)F)cc2)C(=O)C1(Cl)C(=O)Nc1cccc(C(C)(F)F)c1` (stereo not drawn) [Compound 172, 4-chloro-N-(3-(1,1-difluoroethyl)phenyl)-1-(4-(difluoromethoxy)phenyl)-3-methyl-5-oxo-4,5-dihydro-1H-pyrazole-4-carboxamide], with 1 to 100 nM. Turning to `CC(F)(F)c1cccc(NC(=O)c2cnc(-c3ccc(OC(F)F)cc3)nc2)c1` [Compound 173, N-(3-(1,1-difluoroethyl)phenyl)-2-(4-(difluoromethoxy)phenyl)pyrimidine-5-carboxamide], the IC50 is above 100 nM. Then `CC1=NN(c2ccc(OC(F)F)cc2)C(=O)C1(C)C(=O)Nc1cccc(C(C)(F)F)c1` (stereo not drawn) [Compound 174, N-(3-(1,1-difluoroethyl)phenyl)-1-(4-(difluoromethoxy)phenyl)-3,4-dimethyl-5-oxo-4,5-dihydro-1H-pyrazole-4-carboxamide], with above 100 nM.

On to `Cc1nn(-c2ccc(OC(F)F)c(-c3ccccn3)c2)cc1C(=O)Nc1cccc(C(C)(F)F)c1` [Compound 175, N-[3-(1,1-difluoroethyl)phenyl]-1-[4-(difluoromethoxy)-3-(2-pyridyl)phenyl]-3-methyl-pyrazole-4-carboxamide], for which the IC50 fell in the range of 1 to 100 nM. To `Cc1nn(-c2cc(-c3ccccc3)c(OC(F)F)c(-c3ccccc3)c2)cc1C(=O)Nc1cccc(C(C)(F)F)c1` [Compound 176, N-(3-(1,1-difluoroethyl)phenyl)-1-(2′-(difluoromethoxy)-[1,1′:3′,1″-terphenyl]-5′-yl)-3-methyl-1H-pyrazole-4-carboxamide] belongs 1 to 100 nM. Then `Cc1nn(-c2ccc(OC(F)F)c(-c3ccccn3)c2)c(C)c1C(=O)Nc1cccc(C(C)(F)F)c1` [Compound 177, N-(3-(1,1-difluoroethyl)phenyl)-1-(4-(difluoromethoxy)-3-(pyridin-2-yl)phenyl)-3,5-dimethyl-1H-pyrazole-4-carboxamide], with 1 to 100 nM; and `Cc1nn(-c2ccc(OC(F)F)c(-c3ccccc3)c2)c(C)c1C(=O)Nc1cccc(C(C)(F)F)c1` [Compound 178], with 1 to 100 nM; and `Cc1nn(-c2ccc(OC(F)F)c(-c3cccnc3)c2)c(C)c1C(=O)Nc1cccc(C(C)(F)F)c1` [Compound 179, N-(3-(1,1-difluoroethyl)phenyl)-1-(4-(difluoromethoxy)-3-(pyridin-3-yl)phenyl)-3,5-dimethyl-1H-pyrazole-4-carboxamide], with 1 to 100 nM. For `COc1c(C)cc(N2N=C(C)C(C(=O)Nc3cccc(C(C)(F)F)c3)C2=O)cc1-c1ccccc1` (stereo not drawn) [Compound 180, N-[3-(1,1-difluoroethyl)phenyl]-1-(4-methoxy-3-methyl-5-phenyl-phenyl)-3-methyl-5-oxo-4H-pyrazole-4-carboxamide], the IC50 was in the range of 1 to 100 nM. As to `Cc1nn(-c2ccc(OC(F)F)c(-c3ccncc3)c2)cc1C(=O)Nc1cccc(C(C)(F)F)c1` [Compound 181, N-(3-(1,1-difluoroethyl)phenyl)-1-(4-(difluoromethoxy)-3-(pyridin-4-yl)phenyl)-3-methyl-1H-pyrazole-4-carboxamide], the IC50 lay within 1 to 100 nM. To `Cc1nn(-c2ccc(OC(F)F)c(-c3cccnc3)c2)cc1C(=O)Nc1cccc(C(C)(F)F)c1` [Compound 182, N-(3-(1,1-difluoroethyl)phenyl)-1-(4-(difluoromethoxy)-3-(pyridin-3-yl)phenyl)-3-methyl-1H-pyrazole-4-carboxamide] belongs 1 to 100 nM; to `Cc1nn(-c2ccc(OC(F)F)c(-c3cccnc3)c2)c(OC(=O)N2CCN(C(C)(C)CO)CC2)c1C(=O)Nc1cccc(C(C)(F)F)c1` [Compound 183, 4-((3-(1,1-difluoroethyl)phenyl)carbamoyl)-1-(4-(difluoromethoxy)-3-(pyridin-3-yl)phenyl)-3-methyl-1H-pyrazol-5-yl 4-(1-hydroxy-2-methylpropan-2-yl)piperazine-1-carboxylate], above 100 nM. Regarding `Cc1nn(-c2ccc(OC(F)F)cc2)c(C)c1C(=O)Nc1cccc(C(C)(F)F)c1` [Compound 184, N-(3-(1,1-difluoroethyl)phenyl)-1-(4-(difluoromethoxy)phenyl)-3,5-dimethyl-1H-pyrazole-4-carboxamide], the IC50 was above 100 nM. Regarding `Cc1nn(-c2ccc(OC(F)F)cc2)c(OC(=O)N2CCN(C(C)(C)CO)CC2)c1C(=O)Nc1cccc(C(C)(F)F)c1` [Compound 185, 4-((3-(1,1-difluoroethyl)phenyl)carbamoyl)-1-(4-(difluoromethoxy)phenyl)-3-methyl-1H-pyrazol-5-yl 4-(1-hydroxy-2-methylpropan-2-yl)piperazine-1-carboxylate], the IC50 was above 100 nM. With `Cc1nn(-c2ccc(OC(F)F)c(-c3ccccc3)c2)cc1C(=O)Nc1cccc(C(C)(F)F)c1` [Compound 186, N-(3-(1,1-difluoroethyl)phenyl)-1-(6-(difluoromethoxy)-[1,1’-biphenyl]-3-yl)-3-methyl-1H-pyrazole-4-carboxamide], the IC50 lay in the range of 1 to 100 nM. Then `Cc1nn(-c2ccc(OC(F)F)c(-c3cccnc3)c2)c(OC(=O)N2CCN(CCO)CC2)c1C(=O)Nc1cccc(C(C)(F)F)c1` [Compound 187, 4-((3-(1,1-difluoroethyl)phenyl)carbamoyl)-1-(4-(difluoromethoxy)-3-(pyridin-3-yl)phenyl)-3-methyl-1H-pyrazol-5-yl 4-(2-hydroxyethyl)piperazine-1-carboxylate], with above 100 nM; and `COc1ccc(-n2nc(C)c(C(=O)Nc3cccc(C(C)(F)F)c3)c2OC(=O)N2CCC(N3CCCCC3)CC2)cc1` [Compound 188, 4-((3-(1,1-difluoroethyl)phenyl)carbamoyl)-1-(4-methoxyphenyl)-3-methyl-1H-pyrazol-5-yl [1,4′-bipiperidine]-1′-carboxylate], with 1 to 100 nM. On to `Cc1nn(-c2ccc(OC(F)F)cc2)c(OC(=O)N2CCC(N3CCCCC3)CC2)c1C(=O)Nc1cccc(C(C)(F)F)c1` [Compound 189, 4-((3-(1,1-difluoroethyl)phenyl)carbamoyl)-1-(4-(difluoromethoxy)phenyl)-3-methyl-1H-pyrazol-5-yl [1,4′-bipiperidine]-1′-carboxylate], for which the IC50 fell in the range of 1 to 100 nM.

Source of the values: patent US12441689B2 (EpiVario, Inc., priority 2019, dated 2025).
